Consider two compounds from article PMC11022729 (Advanced Science, 2024).

One data set concerns the target T1, purified human Slack (Homo sapiens, UniProt Q5JUK3).
T1 construct: NM_02 0822.3, residues 1–1235; green fluorescent protein (GFP) (C, cleaved yes); twin strep-II-tag (C, cleaved yes); made in house; host or cells: HEK293F cells, transient transfection
T1 sequence (Q5JUK3 1-1235 isoform Q5JUK3-3): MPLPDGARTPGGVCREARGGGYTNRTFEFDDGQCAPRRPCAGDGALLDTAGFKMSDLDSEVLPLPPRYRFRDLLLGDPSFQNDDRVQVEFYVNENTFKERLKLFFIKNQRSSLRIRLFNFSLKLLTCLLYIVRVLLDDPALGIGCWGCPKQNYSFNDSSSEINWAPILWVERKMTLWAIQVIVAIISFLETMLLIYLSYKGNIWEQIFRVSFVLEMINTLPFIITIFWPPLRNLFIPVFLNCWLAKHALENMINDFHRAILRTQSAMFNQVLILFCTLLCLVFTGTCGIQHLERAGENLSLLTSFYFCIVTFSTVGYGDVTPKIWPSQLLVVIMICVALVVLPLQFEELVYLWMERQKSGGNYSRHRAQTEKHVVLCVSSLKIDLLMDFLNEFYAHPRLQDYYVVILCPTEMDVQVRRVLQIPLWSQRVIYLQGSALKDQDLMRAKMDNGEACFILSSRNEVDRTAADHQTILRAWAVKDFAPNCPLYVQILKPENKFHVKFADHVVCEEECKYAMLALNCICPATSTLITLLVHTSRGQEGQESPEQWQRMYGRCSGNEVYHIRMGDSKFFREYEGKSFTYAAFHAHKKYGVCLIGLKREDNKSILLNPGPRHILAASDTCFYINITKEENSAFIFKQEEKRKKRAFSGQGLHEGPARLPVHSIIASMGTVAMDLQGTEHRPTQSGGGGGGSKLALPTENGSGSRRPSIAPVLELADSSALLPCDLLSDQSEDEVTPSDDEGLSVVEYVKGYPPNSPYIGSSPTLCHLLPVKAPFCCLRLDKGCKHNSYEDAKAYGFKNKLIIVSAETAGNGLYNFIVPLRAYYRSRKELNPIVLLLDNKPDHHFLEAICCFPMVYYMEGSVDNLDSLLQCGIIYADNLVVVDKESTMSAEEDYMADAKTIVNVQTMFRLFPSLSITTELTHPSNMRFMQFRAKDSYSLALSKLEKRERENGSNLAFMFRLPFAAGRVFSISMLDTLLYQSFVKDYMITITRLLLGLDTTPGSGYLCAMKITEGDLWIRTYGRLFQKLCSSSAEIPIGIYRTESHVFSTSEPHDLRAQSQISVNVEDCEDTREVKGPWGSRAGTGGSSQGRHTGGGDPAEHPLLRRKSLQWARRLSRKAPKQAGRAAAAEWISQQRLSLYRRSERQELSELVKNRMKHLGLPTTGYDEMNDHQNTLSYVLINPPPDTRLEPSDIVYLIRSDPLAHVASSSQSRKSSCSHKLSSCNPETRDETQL
Kind of data set: Differential scanning fluorimetry (DSF) on purified Slack. Type of data set: binding. To be noted: 100 µM ligand concentration; for melting temperature Tm of Slack: Tm without ligand 30 °C. As to the method: To confirm that the cellular effect of compound 6 was mediated by its direct interaction with Slack, ligand binding on purified human Slack (Figure S6A, Supporting Information) was assessed by differential scanning fluorimetry (DSF), thereby evaluating a ligand‐dependent shift of the protein melting temperature (T m). The cysteine‐reacting dye 7‐diethylamino‐3‐(4‐maleimidophenyl)−4‐methylcoumarin (CPM), which binds to cysteine residues that are accessible during protein unfolding, was used as an indicator for protein unfolding. […] In the presence of a Slack inhibitor (compound 31 from ref. [27]), known to directly interact with the protein and therefore used as a positive control, T m saturated at 45.7 ± 3.2 °C at a ligand concentration of 100 µM (Figure S6B, Supporting Information), indicating a notable stabilization of Slack.
The melting temperature was determined from the fluorescence of 7‐diethylamino‐3‐(4‐maleimidophenyl)−4‐methylcoumarin (CPM) dye. […] Five microliters of the CPM dye (15 µg mL^−1 CPM final concentration) in the SEC buffer was added to the protein compound mixture and further incubated for 30 min on ice in the dark. The samples were centrifuged at 15 000 × g at 4 °C for 10 min to remove aggregates. Melting curves were recorded in an RT‐PCR (Thermo Fischer) using a temperature range of 10–80 °C in 1 °C‐increments, increasing every 75 s. The CPM dye was excited at a wavelength of 365 nm and the emission was measured at 470 nm.

The next data set concerns the target T2, human D2S receptor (Homo sapiens, UniProt P14416).
T2 construct: expressed in transfected cells; host or cells: CHO
Kind of data set: [3H]-spiperone competition binding assay, D2. The method, then: CHO cells stably expressing human dopamine D2short (D2R) and D3 receptor (D3R) were washed and harvested using PBS. […] The cell membrane homogenate was centrifuged (20 000 × g, 20 min, 4 °C), and the resulting cell pellet was resuspended in the binding buffer. Crude membrane extracts were kept at −80 °C until use. Before starting the experiments, cell membranes were thawed, homogenized by sonication (3 × 10 s), and stored in an ice‐cold binding buffer. […] Assays were performed at least in triplicate with appropriate concentrations ranging from 0.01 nM to 100 µM of the test compound. Non‐specific binding was determined using 10 µM haloperidol. By filtering through GF/B filters pretreated with 0.3% (m/v) polyethyleneimine, the bound radioligand was separated from free radioligand using a cell harvester. Radioactivity was measured using liquid scintillation counting. Data were evaluated using the GraphPad Prism 9 software (San Diego, CA, USA) with a nonlinear regression fit.

Data set [1] concerns mice. In words: Vertical pole test. In kind it is in vivo, mouse. The following applies: 15 min after dosing. The method, then:
(§1) As a prerequisite for interpreting itch behavior experiments, we first tested motor function after systemic dosing.
(§2) Mice were placed on a rotarod treadmill (Ugo Basile, Italy) at increasing speed (4–40 rpm over 300 s) and trained for 4–5 consecutive days. Only mice that reached 300 s without falling off during the training sessions were included in the experiment. In the vertical pole test, the mice were placed head‐upward on top of a vertical pole with a rough surface (diameter, 1 cm; height, 40 cm), and the time until the animals reached the ground was recorded (cut‐off time 20 s). Only mice that reached the ground within 10 s in the baseline measurements were included in the experiment. […] The means of three trials at each time point were calculated for further analyses.

For data set [2], the system named is mice. In words: Accelerating rotarod test. Type of data set: in vivo, mouse. To be noted: 15 min after dosing. The method, then:
as §1, §2
Background: Falling from the rotarod earlier than controls is read as motor impairment.

Data set [3] has as its system mice. Kind of data set: MC903 model of persistent itch. In kind it is in vivo, mouse. To be noted: i.p. at day 8, vs vehicle. The method, then:
We next assessed the efficacy of compound 6 in the treatment of chronic itching. […] These findings are important because they indicate that Slack activators can reduce existing itching.
Chronic itching was induced using the MC903 model.^[ [48] ^] The fur on the dorsolateral aspect of the neck was shaved under brief isoflurane anesthesia. Five days later, 20 µL MC903 (0.2 mM; Calcipotriol, Tocris) solved in absolute ethanol was applied to the skin at the back of the neck under brief anesthesia for 7 consecutive days. On day 8, the mice were habituated for 30 min in a plexiglass cylinder (30 cm in diameter). Compound 6 hydrochloride or vehicle was administered i.p., and 15 min later, spontaneous scratching was recorded over 30 min by videotaping.

T2 sequence (P14416 1-414 isoform P14416-2): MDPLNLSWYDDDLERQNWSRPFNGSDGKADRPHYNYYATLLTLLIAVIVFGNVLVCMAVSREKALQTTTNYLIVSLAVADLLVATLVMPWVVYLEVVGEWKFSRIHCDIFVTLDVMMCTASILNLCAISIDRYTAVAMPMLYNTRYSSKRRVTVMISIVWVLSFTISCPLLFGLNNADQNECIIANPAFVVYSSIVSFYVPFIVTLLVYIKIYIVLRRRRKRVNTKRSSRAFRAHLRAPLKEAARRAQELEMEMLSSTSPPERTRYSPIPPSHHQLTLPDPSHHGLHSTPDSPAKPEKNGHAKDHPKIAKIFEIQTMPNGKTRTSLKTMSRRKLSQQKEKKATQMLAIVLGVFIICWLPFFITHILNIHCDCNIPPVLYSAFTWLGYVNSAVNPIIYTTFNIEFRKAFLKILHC

The term Ki denotes the dissociation constant of the complex between target and ligand, obtained from inhibition or displacement. High values mean weaker binding, low ones tighter binding. In the case of `O=C(O)COCCN1CCN(C2=Nc3ccccc3Oc3ccc(Cl)cc32)CC1` [Compound 6], at purified human Slack, the “increase in Tm” value turned out to be 9.3 °C and the “melting temperature Tm of Slack” value stood at 39.3 ± 0.9 °C. Further, the “fold lower affinity against D2 as compared to loxapine” value at human D2S receptor is “≈ 40 fold”. This compound also had a Ki on human D2S receptor (mean [CI 95%]) of 1280 nM. For the same compound, the “motor function, vertical pole test” value in the data set on mice [1] (3–30 mg i.p.) is listed as “did not impair motor function”. For the same compound, the “motor function, accelerating rotarod test” value in the data set on mice [2] (3–30 mg i.p.) is reported as “did not impair motor function”. Further, in the data set on mice [3], the head shaking result is “significantly ameliorated” and the scratching entry is listed as “significantly ameliorated”.

Take `CN1CCN(C2=Nc3ccccc3Oc3ccc(Cl)cc32)CC1` [Loxapine, reference compound]: on purified human Slack, the “increase in Tm” value turned out to be 7.8 °C and the “melting temperature Tm of Slack” value is 37.8 ± 1.3 °C. The “motor function, vertical pole test” value with mice [1] (dose of ≥ 0.39 mg kg−1 i.p.) is “markedly reduced the ability of the mice to perform”. For the same compound, the “motor function, accelerating rotarod test” value with mice [2] (dose of ≥ 0.39 mg kg−1 i.p.) is recorded as “markedly reduced the ability of the mice to perform”.
